IC50 data for eleven substances are collected here from patent publication US5340727A, “GPIbα fragments and recombinant DNA expression vectors” (The Scripps Research Institute, priority 1990, dated 1994).

Where no end group is shown, it is not given here.

The target of experiment [1] is T1, vWF-GPIb interaction (Homo sapiens, UniProt P04275+P07359).
T1 construct: endogenous in cells; host or cells: fresh or formalin-fixed platelets
Description: Ristocetin-induced binding of 125I-labeled vWF to fresh or formalin-fixed platelets. The conditions noted are these: peptides tested individually; read-out: IC50, inhibition of binding of vWF to the GPIb of platelets by synthetic peptides. Here is the method: The assay system is based on the use of ^125 I-labeled vWF and fresh or formalin-fixed platelets; ristocetin was used to induce the binding of vWF to GPIb. After incubation for 30 minutes at 37° C., without stirring, separation of bound platelet from free vWF ligand was achieved by centrifugation through 20% sucrose in Tyrode buffer, followed by measurement of the bound radioactivity as described in Ruggeri et al., J. Clin. Invest., 72, 1-12 (1983). Nonspecific binding was evaluated for selected points by measuring the binding in the presence of a 40-fold excess of unlabeled vWF. Binding isotherms were evaluated by Scatchard-type analysis to determine binding parameters (including the estimate of nonspecific binding) using the computer-assisted program "Ligand" as described in Munson, Methods Enzymol., 92, 542-576 (1983).

For the next experiment, the target named is GPIb-IX (Homo sapiens, UniProt P04275). As to the kind of experiment: biochemical.
GPIb-IX, sequence (P04275 764-2813 limits assumed): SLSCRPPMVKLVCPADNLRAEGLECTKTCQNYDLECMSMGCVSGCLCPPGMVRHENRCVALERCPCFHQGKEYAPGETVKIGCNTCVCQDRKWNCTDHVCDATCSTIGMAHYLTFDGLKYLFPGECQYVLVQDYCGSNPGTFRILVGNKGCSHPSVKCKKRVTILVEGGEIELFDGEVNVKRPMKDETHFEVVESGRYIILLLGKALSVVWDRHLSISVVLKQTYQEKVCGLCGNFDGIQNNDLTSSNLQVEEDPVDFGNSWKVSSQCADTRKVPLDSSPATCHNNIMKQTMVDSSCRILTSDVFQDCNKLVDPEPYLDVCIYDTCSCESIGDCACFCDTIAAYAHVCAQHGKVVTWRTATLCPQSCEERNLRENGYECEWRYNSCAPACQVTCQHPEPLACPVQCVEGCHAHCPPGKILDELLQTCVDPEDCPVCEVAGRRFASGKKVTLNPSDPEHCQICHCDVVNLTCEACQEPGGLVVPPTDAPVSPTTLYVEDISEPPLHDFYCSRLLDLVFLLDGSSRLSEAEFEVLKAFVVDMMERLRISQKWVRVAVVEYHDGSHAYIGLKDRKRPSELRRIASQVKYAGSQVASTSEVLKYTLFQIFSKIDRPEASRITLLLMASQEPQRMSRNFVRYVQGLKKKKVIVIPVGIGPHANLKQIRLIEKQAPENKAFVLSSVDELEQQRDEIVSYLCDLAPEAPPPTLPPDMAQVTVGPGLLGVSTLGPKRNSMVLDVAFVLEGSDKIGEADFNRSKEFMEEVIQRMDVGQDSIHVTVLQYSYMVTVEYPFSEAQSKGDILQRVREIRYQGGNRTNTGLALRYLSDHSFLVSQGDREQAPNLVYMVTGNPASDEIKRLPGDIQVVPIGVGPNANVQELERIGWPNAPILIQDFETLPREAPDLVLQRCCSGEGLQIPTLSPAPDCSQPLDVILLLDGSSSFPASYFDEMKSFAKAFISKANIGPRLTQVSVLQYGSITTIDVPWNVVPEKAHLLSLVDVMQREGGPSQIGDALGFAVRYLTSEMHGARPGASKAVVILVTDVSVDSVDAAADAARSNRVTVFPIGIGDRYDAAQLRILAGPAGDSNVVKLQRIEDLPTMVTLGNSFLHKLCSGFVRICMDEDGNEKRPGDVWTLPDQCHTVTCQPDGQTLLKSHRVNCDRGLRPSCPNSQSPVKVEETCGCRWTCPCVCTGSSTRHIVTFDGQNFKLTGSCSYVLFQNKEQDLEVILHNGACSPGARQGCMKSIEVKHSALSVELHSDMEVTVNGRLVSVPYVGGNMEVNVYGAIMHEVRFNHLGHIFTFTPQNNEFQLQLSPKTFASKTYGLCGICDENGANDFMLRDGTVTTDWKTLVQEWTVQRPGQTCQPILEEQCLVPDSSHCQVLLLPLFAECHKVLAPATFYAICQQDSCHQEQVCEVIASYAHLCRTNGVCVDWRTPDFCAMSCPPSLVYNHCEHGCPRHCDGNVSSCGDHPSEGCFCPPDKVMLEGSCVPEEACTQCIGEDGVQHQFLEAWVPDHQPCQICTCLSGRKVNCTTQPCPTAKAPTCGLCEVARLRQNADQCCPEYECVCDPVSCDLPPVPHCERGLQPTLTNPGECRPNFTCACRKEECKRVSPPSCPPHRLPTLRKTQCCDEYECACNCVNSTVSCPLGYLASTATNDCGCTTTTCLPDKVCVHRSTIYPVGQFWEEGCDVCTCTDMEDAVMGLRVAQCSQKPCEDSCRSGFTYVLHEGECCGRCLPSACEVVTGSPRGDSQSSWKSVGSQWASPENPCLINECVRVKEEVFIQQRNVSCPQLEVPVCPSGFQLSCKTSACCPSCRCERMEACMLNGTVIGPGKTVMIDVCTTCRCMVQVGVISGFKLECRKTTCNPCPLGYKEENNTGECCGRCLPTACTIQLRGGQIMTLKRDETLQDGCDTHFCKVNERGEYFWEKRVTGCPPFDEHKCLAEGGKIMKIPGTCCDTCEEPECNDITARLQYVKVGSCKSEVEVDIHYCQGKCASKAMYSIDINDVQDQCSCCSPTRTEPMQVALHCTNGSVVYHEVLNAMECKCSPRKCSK
The target of a further experiment is T2, GPIb-IX (Homo sapiens).
T2 construct: which utilizes washed platelets fixed with formaldehyde; endogenous in cells; host or cells: washed platelets fixed with formaldehyde
T2 sequence (P04275 764-2813 limits assumed): as above
Description: Ristocetin-dependent 125I-vWF binding to formaldehyde-fixed washed platelets (Examples 5-7). The following applies: 125I-vWF 2 μg/ml; read-out: concentration that inhibits 50% of ristocetin-induced binding of vWF.

The target of experiment [2] is T1, vWF-GPIb interaction. Description: Inhibition of ristocetin-induced binding of vWF to formalin-fixed platelets (Example 1). The conditions noted are these: 125I-vWF 5 μg/ml, ristocetin 1.0 mg/ml. Here is the method: To test the inhibitory activity of the peptides of the present invention, formalin-fixed platelets were used at a final concentration of 1×10^11 /l. Assayed peptides were then added at various concentrations. One third final volume of vWF-deficient plasma was then added followed by ^125 I-vWF at a final concentration of 5 μg/ml. Ristocetin was then added at a concentration of 1.0 mg/ml. After incubation for o30 minutes at room temperature, bound and free vWF ligand were separated by centrifuging 50 μl of the mixture through 300 μl of 20% sucrose at 12,000 g for 4 minutes. The platelet pellet was then separated from the rest of the mixture to determine platelet-bound radioactivity. Nonspecific binding was defined as the residual binding of ^125 I-vWF in the presence of a 50-fold excess of unlabeled vWF but in the absence of any peptides.
Percent inhibition with a given peptide was calculated by dividing the specific cpm […].

Experiment [3] has as its target T1, vWF-GPIb interaction. Description: Inhibition of asialo-vWF binding to fresh platelets (Example 2). The conditions noted are these: 125I-asialo-vWF 5 μg/ml. Here is the method:
Fresh platelets were prepared by drawing blood into a solution of 11 mM trisodium citrate and 2 mM EDTA. Platelet-rich plasma was then prepared by differential centrifugation. The platelet count was then adjusted to 1×10^11 /l. Peptides were then added to various concentrations and ^125 I-asialo-vWF was then added at a final concentration of 5 μg/ml. After incubation for 30 minutes at room temperature, bound and free vWF ligand were separated by centrifuging 50 μl of the mixture through 300 μl of 20% sucrose at 12,000 g for 4 minutes. The platelet pellet was then separated from the rest of the mixture to determine platelet-bound radioactivity. Non-specific binding was defined as the residual binding of ^125 I- asialo-vWF in the presence of a 50-fold excess of unlabeled vWF but in the absence of any peptides.
Percent inhibition with a given peptide was calculated by dividing the specific cpm obtained when various concentrations of peptide were added by the specific cpm in the absence of peptide.

T1 sequence (P07359 17-652): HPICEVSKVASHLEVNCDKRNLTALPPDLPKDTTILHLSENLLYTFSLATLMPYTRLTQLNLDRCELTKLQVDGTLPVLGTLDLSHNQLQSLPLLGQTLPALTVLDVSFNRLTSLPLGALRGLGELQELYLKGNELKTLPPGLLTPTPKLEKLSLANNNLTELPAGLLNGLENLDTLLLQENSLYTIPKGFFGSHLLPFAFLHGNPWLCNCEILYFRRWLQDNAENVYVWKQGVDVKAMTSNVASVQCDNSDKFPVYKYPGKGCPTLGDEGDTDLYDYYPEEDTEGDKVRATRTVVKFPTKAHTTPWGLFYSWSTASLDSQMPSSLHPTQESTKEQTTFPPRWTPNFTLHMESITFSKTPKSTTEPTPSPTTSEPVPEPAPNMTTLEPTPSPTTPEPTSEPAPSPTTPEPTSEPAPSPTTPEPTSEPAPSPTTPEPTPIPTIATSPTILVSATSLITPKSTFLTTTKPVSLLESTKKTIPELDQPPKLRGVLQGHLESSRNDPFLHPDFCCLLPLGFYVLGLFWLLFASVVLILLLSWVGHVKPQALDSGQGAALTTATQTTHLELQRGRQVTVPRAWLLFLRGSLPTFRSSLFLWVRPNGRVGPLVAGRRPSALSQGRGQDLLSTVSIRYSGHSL
T1 sequence (P04275 764-2813 limits assumed): as the sequence (P04275 764-2813 limits assumed) above
Description for GPIb-IX (Homo sapiens): Percent inhibition of binding of vWF to platelets was measured using I^125 labelled vWF prepared according to the methods of Ruggeri et al. See also DeMarco et al., J. Clin. Invest., 68, 321-328 (1981). Binding of vWF to platelets induced by ristocetin and/or botrocetin (and inhibition thereof) was measured according to the method of MacFarlane et al., Thromb. Diath. Haemorrh., 34, 306-308 (1975) which utilizes washed platelets fixed with formaldehyde. […] Each peptide, used at a final concentration of 500 μmol/l with a ^125 I-vWF concentration of 2 μg/ml, is identified by the same numeral used in the top part of the figure.
Further experiments were performed with a constant ^125 I-vWF concentration of 2 μg/ml and varying peptide concentration, as indicated on the FIG. 2 abscissa. […] One hundred percent binding was that measured in the presence of Hepes buffer instead of peptide.
Binding inhibition experiments were conducted analogous to those in Example 6 using an I^125 -vWF concentration of 2 μg/ml.

For DKRNLTALPPDLPKDTT, the IC50 at vWF-GPIb interaction [1] is not above 500 µM.
Still for that read-out and setting: the figure for EEDTE [EEDTE] is more than 500 µM; for EEDTEGDKVRATRTV it is not above 500 µM.
GDTDLYDYYPEEDTE [peptide 25]: the IC50 against GPIb-IX is 530 µM; on GPIb-IX (Homo sapiens), 420 µM; at vWF-GPIb interaction [1], not above 500 µM.
Consider KQGVDVKAMTSNVAS, for which the IC50 at vWF-GPIb interaction [1] was not above 500 µM.
With KRKRKRKRKR [(KR)5], the IC50 is 13 µM at vWF-GPIb interaction [2] and 1.7 µM at vWF-GPIb interaction [3].
KRKRKRKRKRKRKR [(KR)7] yielded an IC50 on vWF-GPIb interaction [2] of 9 µM.
Regarding NLTALPPDLPKDTTI, the IC50 at vWF-GPIb interaction [1] is not above 500 µM.
With PGLLTPTPKLEKLSL, the IC50 on vWF-GPIb interaction [1] was not above 500 µM.
With PPDLPKDTT, the IC50 at vWF-GPIb interaction [1] was more than 500 µM.
The same measure, in the same setting: the figure for PPDLPKDTTILHLSE is not above 500 µM.
